Data reported in patent US20220030866A1, “CONJUGATES OF AUXIN ANALOGS” (The State of Israel, Ministry of Agriculture & Rural …, priority 2019, published 2022).

Key:
Assay type in all cases: in vivo
[1] = tested on: cuttings from mature Eucalyptus grandis trees; assay: rooting of cuttings from mature Eucalyptus grandis trees; settings: 100 μM compound by submerging or spraying, with 6000 ppm IBA
[2] = tested on: avocado rootstock cuttings; assay: rooting of avocado rootstock cuttings; settings: for root architecture / root length of VC801 avocado cuttings compared to IBA control, in words: VC801 rootstock
Excerpt: Avocado rootstock is extremely difficult to root. Currently, the common technique for propagating clones of avocado rootstock is to graft the desired rootstock on a seedling, and transfer to the dark to generate an etiolated branch. This branch can be rooted and grafted with the desired variety while still grafted on the seed [Frolich & Platt, California Avocado Society 1971-72 Yearbook 1972, 55:97-109]. However, the preparation of such twice-grafted seedlings is time-consuming and expensive.
The ability of exemplary conjugates to promote rooting in green avocado cuttings (in the presence of IBA) was therefore examined. In particular, Compounds 2h (MCPA-methanol), 4b (NAA-β-alanine methyl ester), 3g (2-DP-methyl-4-aminobenzoate), 3f (2-DP-p-toluidine), 1l (4-CPA-morpholine) and is (4-CPA-D-Trp) were tested.
(§1) Exemplary conjugates were also tested for rooting the hard-to-root species of avocado (VC801 rootstock) and argan, according to procedures described hereinabove.

[3] = tested on: mung bean cuttings; assay: rooting of mung bean cuttings (number of adventitious roots per cutting); settings: for effect on AR formation in mung bean cuttings, in words: tested at 2, 10 or 50 μM
Method: Mung bean cuttings have been used for many years as a model for assessing the effect of plant hormones and synthetic chemicals on the rooting process. In the present study, this system was used to ascertain activity of conjugates in inducing adventitious root (AR) formation, and to evaluate the rate of conjugate hydrolysis that releases the free active auxin. […] The rooting activity in this system is determined by the number of adventitious roots per cutting.
The mung bean model was used to examine the activity of conjugates of three phenoxy acids, 4-CPA, MCPA, and 2-DP, on rooting. For comparison, plants were treated with (unconjugated) IBA or with 2-DP conjugated to glycine methyl ester (Gly-ME).

[4] = tested on: Pinus halepensis cuttings; assay: rooting and root development in pine cuttings; settings: 400 ppm IBA potassium salt + 5 ppm conjugate, 4 hours dip; 12 weeks
Method: The effects of exemplary D-amino acid conjugates of 4-CPA (Compounds to and Is) on rooting in Pinus halepensis cuttings were compared with those of 2-DP-glycine methyl ester conjugate (2-DP-Gly). Rooting mature pine cuttings (i.e., cuttings that are taken from trees more than 4 years old) is very difficult.
Apical cuttings were taken from 7-year-old trees, stored for 4 weeks at 4° C., and treated by dipping the cutting bases for 4 hours in the following solution: 400 ppm IBA potassium salt+5 ppm tested conjugate+0.1% Amistar™ fungicide (250 grams/liter azoxystrobin). The cuttings were evaluated after 12 weeks.

[5] = tested on: Arabidopsis seedlings; assay: root elongation inhibition in Arabidopsis seedlings; settings: 50 nM, after 5 days
Method: Adventitious roots (ARs) were induced in intact plants, using previously described procedures [Gutierrez et al., Plant Cell 2009, 21:3119-3132; Abu-Abied et al., Plant J 2012, 71:787-799; Rasmussen et al., Plant Physiol 2012, 158:1976-1987]. Briefly, seeds were germinated on MS/0.8% agar plates supplemented with 3% sucrose. The plates were kept in the dark for 2 days at 4° C., then 5 days at 22° C. in the dark, 2 days in the light, 3 days in the dark and then additional 4 days in the light to complete 2 weeks when roots were counted using a stereoscope. Sensitivity to auxin and/or auxin analogs was determined by following root elongation on vertical plates. The 4-day-old seedlings were transferred to MS plates containing 0.05 or 0.5 μM IAA and the root length was measured after 5 days, including the number of LRs in each root and calculation of the LR density. Each treatment experiment included 10-15 plants and was repeated 3 times.
A common technique for evaluating auxin activity is by determining the ability of a compound to inhibit root elongation [Zolman et al., Genetics 2000, 156:1323-1337]. In order to use this assay for comparing auxin activities of different conjugates, the minimum concentration of free 4-CPA that is active in the root elongation inhibition assay was determined. Four days old seedlings were placed in vertical plates containing increasing concentrations of 4-CPA. The root lengths were marked daily during 5 days.
Based on the above results, the effect of conjugates of 4-CPA (Compounds 1o-1t) on root elongation after 5 days was determined at concentrations of 50 nM.

[6] = tested on: argan (Argania spinosa) cuttings; assay: rooting of argan cuttings; settings: in vivo
Method: The ability of exemplary conjugates to promote rooting in plants which are recalcitrant to rooting (in addition to the results obtained with Eucalyptus grandis in Example 3) was examined using cuttings of argan (Argania spinosa) and jojoba (Simmondsia chinensis) in a commercial nursery (Shorashim). The argan and jojoba cuttings were treated with 100 μM of a conjugate (any of Compounds 10-1t) with 6000 ppm IBA. The common treatment T-8 (talc with 8000 ppm IBA and a fungicide) or 6000 ppm IBA (without conjugate) served as a control.
as §1

[7] = tested on: DR5:venus marker; assay: auxin activity by DR5:venus fluorescence in Arabidopsis plants; settings: 10 μM
Method: Imaging was performed using an SP8 Leica confocal microscope including solid-state lasers producing 405, 488, 514 and 552 nm light, and hybrid or PMT detectors. Objectives were either PL APO 20×/0.75, WD 0.62 mm or PL APO 63×/1.2 WD 0.3 mm. For fluorescence measurements, the Imaris™ spot detection option (Bitplane A.G.) was used to segment nuclei and calculate the average signal intensity.
One technique for assessing auxin activity of the 4-CPA amino acid conjugates utilized plants expressing nucleus-localized, fluorescent DR5:venus marker, the expression level of which is an indicator of intracellular auxin activity [Laskowski et al., PLoS Biol 2008, 6:e307]. Four days old seedlings grown on regular MS medium were transferred to plates containing 10 μM of the tested compounds and fluorescence was inspected by confocal microscope after 24 hours.
In order to assess the ability of the abovementioned sodium salts to penetrate the cells and activate an auxin response, an Arabidopsis DR5-Venus model was utilized (as described hereinabove). The plants were exposed to 10 μM of each compound for 24 hour; MS medium was used as a negative control, and the related Compounds 1p, 1r and 1t were used as positive controls.

[8] = tested on: cuttings from mature Eucalyptus grandis trees; assay: rooting of cuttings from mature Eucalyptus grandis trees; settings: 100 μM conjugate without IBA, or 28 mM (6000 ppm) IBA alone; submerging base or spraying; scored after 45-60 days
Method: Eight-year-old Eucalyptus grandis plants were grown from seeds and placed in a net house in 20 liter pots containing peat and tuff (70:30, v/v), drip irrigated and fertilized with 3 liters of Shefer™ 737 liquid fertilizer (ICL Fertilizers, Israel) per cubic meter of water. Cuttings were collected from branches which grew 2-2.5 meters above the ground. Cuttings were 2-3 mm thick branches, 15 cm long, with 1-2 pairs of leaves. The leaf blades were cut in half to decrease transpiration. Cuttings were treated with 6000 ppm IBA (potassium indole-3-butyric acid) for 1 minute with or without 100 μM of each tested compound. The tested compounds were either applied to the base of the cutting, with or without IBA and/or sprayed on the foliage in the presence of 0.05% Triton™ X-100 surfactant. Cuttings were rooted in rooting tables heated to 25° C. under constant 90% humidity, in a controlled-climate greenhouse. The rooting medium contained crushed polystyrene foam: vermiculite no. 3: pit (3:2:1, v/v/v). Rooting was recorded after 30-60 days. Roots system architecture was analyzed by WinRHIZO™ system scanner and software.
Exemplary conjugates prepared as described in Example 1 were tested for their ability to promote adventitious root (AR) formation in cuttings from mature eucalyptus (Eucalyptus grandis) trees. In this model, AR formation is difficult to induce, with 5-15% root development in the presence of IBA potassium salt [Abu-Abied et al., Plant J 2012, 71:787-799], such that effective AR formation indicates a potent root formation activity.
Various concentrations and mode of applications were tested for each compound in the presence or absence of IBA (the “gold standard” rooting enhancer). A concentration of 100 μM of each conjugate was used for an initial screen of 37 conjugates, in which the compounds were applied to the base of the cutting by dipping (submerging the cutting base in a solution of the conjugate for one minute) or to the foliage by spraying. After 45 days, the cuttings were scored for the presence of callus or roots.
Conjugates prepared as described herein were evaluated in a Eucalyptus grandis rooting model, according to procedures such as described hereinabove. The bases of cuttings (a 12-15 cm long branch with the two upper leaves, whose blades were cut in half) were dipped in a solution containing 6000 ppm IBA potassium salt and 50 μM of conjugate for 1 minute, and the leaves were sprayed with 50 μM of the same conjugate (mixed with 0.5% Triton™ X-100 surfactant). The cuttings were imbedded in a heated (25° C.) rooting table containing a 1:2:3 ratio of peat:vermiculite:polystyrene, under 90% relative humidity.

[9] = Table 1, 10 μM, water control 29.6
[10] = Table 1, 50 μM, water control 29.6

With `Cc1ccc(NC(=O)C(C)Oc2ccc(Cl)cc2Cl)cc1` (centres unmarked) [Compound 3f, 2-DP-p-toluidine] the “rooting in combination with IBA compared with IBA alone, in words” value (shortened to “rooting … compared with IBA alone, in words”) [1] was “enhanced rooting in comparison with IBA alone”, the “roots per cutting of green avocado branches compared with etiolated branches treated with IBA, in words” value ([2]; vc51 rootstock, IBA with compound) was “considerably more roots per cutting” and the “rooting success rate of green avocado branches, in words” value ([2]; vc51 rootstock, IBA with compound, compared with IBA alone) was “considerably enhanced the rooting success rate”.

For `COC(=O)c1ccc(NC(=O)COc2ccc(Cl)cc2)cc1` [Compound 1g, 4-CPA-methyl-4-aminobenzoate], the “rooting of mung bean cuttings (number of roots per cutting)” value (from here on “rooting … (number of roots per cutting)”) [3, 9] was 0, the “rooting … (number of roots per cutting)” value [3, 10] was 0 and the “rooting … compared with IBA alone, in words” value [1] was “enhanced rooting in comparison with IBA alone”.

In the case of `COC(=O)CCNC(=O)COc1ccc(Cl)cc1` [Compound 1b, 4-CPA-β-alanine methyl ester], the “rooting … (number of roots per cutting)” value [3, 9] is reported as 0, the “rooting … (number of roots per cutting)” value [3, 10] is reported as 0 and the “rooting … compared with IBA alone, in words” value [1] is reported as “enhanced rooting in comparison with IBA alone”.

In the case of `Cc1ccc(NC(=O)COc2ccc(Cl)cc2)cc1` [Compound 1f, 4-CPA-p-toluidine], the “rooting … (number of roots per cutting)” value [3, 9] is reported as 0, the “rooting … (number of roots per cutting)” value [3, 10] is reported as 0 and the “rooting … compared with IBA alone, in words” value [1] is reported as “enhanced rooting in comparison with IBA alone”.

In the case of `COC(=O)CNC(=O)C(C)Oc1ccc(Cl)cc1Cl` (centres unmarked) [Compound 2-DP-Gly, reference compound], the “rooting … (number of roots per cutting)” value [3, 10] is reported as 97.2, the “effect on AR formation in mung bean cuttings, in words” value (shortened to “effect on AR formation”) [3] is reported as “positively correlated to dose” and the “Degree of root development Medium (%)” value [4] is reported as 6.6%. For the same compound, the “Degree of root development Weak (%)” value [4] was 46.7%, the “Degree of root development Well-developed (%)” value [4] was 46.7% and the “Rooting rate (%)” value [4] was 87.5%.

In the case of `COC(=O)C(C)Oc1ccc(Cl)cc1Cl` (centres unmarked) [Compound 3h, 2-DP-methanol], the “rooting … compared with IBA alone, in words” value [1] is reported as “enhanced rooting in comparison with IBA alone”.

In the case of `COC(=O)C[C@H](NC(=O)COc1ccc(Cl)cc1)C(=O)OC` [Compound 1r, 4-CPA-L-Asp-methyl diester], the “rooting … (number of roots per cutting)” value ([3]; Table 2, 2 μM) is reported as 121, the “rooting … (number of roots per cutting)” value ([3]; Table 2, 10 μM) is reported as 34 and the “rooting … (number of roots per cutting)” value ([3]; Table 2, 50 μM) is reported as 0. For the same compound, the “effect on AR formation” value [3] was “exhibited more activity than the D-Asp-methyl ester conjugate”, the “effect on root elongation relative to control, in words” value [5] was “inhibited root elongation relative to control” and the “rooting … compared with IBA alone, in words” value [1] was “at least as potent as that of their corresponding D-amino acid conjugates”.

With `COC(=O)[C@H](CC(N)=O)NC(=O)COc1ccc(Cl)cc1` [4-CPA-L-Asn-methyl ester] the “number of roots per cutting in argan clone YM3 compared to IBA control, in words” value [6] was “considerably increased the number of roots per cutting” and the “root architecture / root length of VC801 avocado cuttings compared to IBA control, in words” value [2] was “considerably increased root length”.

In the case of `COC(=O)CNC(=O)COc1ccc(Cl)cc1` [Compound 4-CPA-Gly, 4-CPA-Gly-methyl ester], the “appearance of the base of mung bean cuttings” value ([3]; FIGS. 4A, 4B) is reported as “appeared swollen, but no AR developed”, the “effect on AR formation” value [3] is reported as “induced a similar rooting rate only at the lowest tested concentration of 2 μM” and the “rooting … compared with IBA alone, in words” value [1] is reported as “exhibited lower rooting activity than the other conjugates”.

For `O=C([O-])C[C@H](NC(=O)COc1ccc(Cl)cc1)C(=O)[O-].[Na+].[Na+]` [Compound 84, 4-CPA-L-Asp disodium salt], the “DR5 fluorescence (auxin activity), in words” value [7] was “did not promote DR5 activity”.

With `CC(C)[C@H](NC(=O)COc1ccc(Cl)cc1)C(=O)[O-].[Na+]` [Compound 83, 4-CPA-L-Val sodium salt] the “DR5 fluorescence (auxin activity), in words” value [7] was “about as active as their non-water soluble methyl esters”.

For `O=C(COc1ccc(Cl)cc1)NCCO` [Compound 1a, 4-CPA-ethanolamine], the “rooting … (number of roots per cutting)” value [3, 9] was 49.5, the “rooting … (number of roots per cutting)” value [3, 10] was 14.9 and the “percentage of cuttings which exhibited rooting, stand-alone treatment” value [8] was 15%. For the same compound, the “rooting … compared with IBA alone, in words” value [1] was “enhanced rooting in comparison with IBA alone”.

In the case of `COC(=O)[C@H](Cc1cnc[nH]1)NC(=O)COc1ccc(Cl)cc1` [4-CPA-L-His-methyl ester], the “number of roots per cutting in argan clone YM3 compared to IBA control, in words” value [6] is reported as “considerably increased the number of roots per cutting” and the “root architecture / root length of VC801 avocado cuttings compared to IBA control, in words” value [2] is reported as “considerably increased root length”.
